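Results reflect a 48-hour exposure of cells in 96-well plates to compound at five concentrations. GI50: concentration for 50% inhibition of growth.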 The source made the active and inactive calls. Cut-off read from the data, not from the text of the source: active = GI50 up to about 1.1 µM and inactive = higher.
Legend:
Assay in all cases: NCI-60 cell line screen, 48 h
ACHN = tested on: ACHN
DMS-114 = tested on: DMS-114
EKVX = tested on: EKVX
HCC 2998 = tested on: HCC 2998
IGROV-1 = tested on: IGROV-1
M14 = tested on: M14
M19-MEL = tested on: M19-MEL
NCI-H522 = tested on: NCI-H522
OVCAR-4 = tested on: OVCAR-4
RXF 393 = tested on: RXF 393
SK-MEL-28 = tested on: SK-MEL-28
SK-MEL-5 = tested on: SK-MEL-5
SK-OV-3 = tested on: SK-OV-3
SN12C = tested on: SN12C
SNB-19 = tested on: SNB-19
SW-620 = tested on: SW-620
COLO 205 = tested on: COLO 205
HCT-15 = tested on: HCT-15
SNB-75 = tested on: SNB-75

Row | Compound | GI50 (ACHN) | GI50 (DMS-114) | GI50 (EKVX) | GI50 (HCC 2998) | GI50 (IGROV-1) | GI50 (M14) | GI50 (M19-MEL) | GI50 (NCI-H522) | GI50 (OVCAR-4) | GI50 (RXF 393) | GI50 (SK-MEL-28) | GI50 (SK-MEL-5) | GI50 (SK-OV-3) | GI50 (SN12C) | GI50 (SNB-19) | GI50 (SW-620) | GI50 (COLO 205) | GI50 (HCT-15) | GI50 (SNB-75)
1 | CCOC(=O)C(=O)Nc1ccccc1CC | > 100 µM (inactive) | > 100 µM (inactive) | > 100 µM (inactive) | > 100 µM (inactive) | > 100 µM (inactive) | > 100 µM (inactive) | > 100 µM (inactive) | > 100 µM (inactive) | > 100 µM (inactive) | > 100 µM (inactive) | > 100 µM (inactive) | > 100 µM (inactive) | > 100 µM (inactive) | > 100 µM (inactive) | > 100 µM (inactive) | > 100 µM (inactive) |  |  | 
2 | CC1=C2[C@@H](c3ccccc3)C3C=CC2(C=C3C(F)(F)F)N(C(=O)NC2CCCCC2)C1=O (stereo not given in full) | > 100 µM (inactive) | 35.1 µM (inactive) | 69 µM (inactive) | 38.9 µM (inactive) | > 100 µM (inactive) | 81.3 µM (inactive) | 54.6 µM (inactive) |  | > 100 µM (inactive) | > 100 µM (inactive) | > 100 µM (inactive) | 43.5 µM (inactive) | > 100 µM (inactive) | > 100 µM (inactive) | > 100 µM (inactive) | > 100 µM (inactive) | > 100 µM (inactive) | 81.3 µM | > 100 µM (inactive)
3 | N#CCC(=O)N/N=C1/C(=O)N(c2ccc(Cl)cc2)C(=O)C(=O)C1c1nc2ccccc2s1 (stereo not given) | > 100 µM (inactive) | > 100 µM (inactive) | 89.3 µM (inactive) | > 100 µM (inactive) | > 100 µM (inactive) | > 100 µM (inactive) | 40.7 µM (inactive) | 46.3 µM (inactive) | > 100 µM (inactive) | 25.8 µM (inactive) | > 100 µM (inactive) | > 100 µM (inactive) | > 100 µM (inactive) | > 100 µM (inactive) | > 100 µM (inactive) | > 100 µM (inactive) | > 100 µM (inactive) | > 100 µM | 20.8 µM (inactive)
4 | Cn1cc(C(=O)c2ccccc2)ccc1=O | > 100 µM (inactive) | > 100 µM (inactive) | > 100 µM (inactive) | > 100 µM (inactive) | > 100 µM (inactive) | > 100 µM (inactive) | > 100 µM (inactive) | > 100 µM (inactive) | > 100 µM (inactive) | > 100 µM (inactive) | > 100 µM (inactive) | > 100 µM (inactive) | > 100 µM (inactive) | > 100 µM (inactive) | > 100 µM (inactive) | > 100 µM (inactive) | > 100 µM (inactive) | > 100 µM | > 100 µM (inactive)
5 | C/C=C/c1cc2c(c(=O)o1)C(=O)[C@@H](O)[C@H](C)O2 |  | 6.75 µM (inactive) | 17.2 µM (inactive) | 10.3 µM (inactive) | 8.32 µM (inactive) |  | 13.4 µM (inactive) | 7.91 µM (inactive) | 15.4 µM (inactive) | 12.3 µM (inactive) | 15 µM (inactive) | 15 µM (inactive) | 37.6 µM (inactive) | 15.4 µM (inactive) | 19.5 µM (inactive) | 11 µM (inactive) | 11.4 µM (inactive) | 11.2 µM | 18.7 µM (inactive)
6 | CCCCCCCCCC/C=C/C=O | > 100 µM (inactive) | > 100 µM (inactive) | > 100 µM (inactive) | > 100 µM (inactive) | > 100 µM (inactive) | > 100 µM (inactive) | > 100 µM (inactive) | > 100 µM (inactive) |  | > 100 µM (inactive) | > 100 µM (inactive) | > 100 µM (inactive) | > 100 µM (inactive) | > 100 µM (inactive) | > 100 µM (inactive) | > 100 µM (inactive) | > 100 µM (inactive) | > 100 µM | > 100 µM (inactive)
7 | Cc1ccc(C2NC(=O)c3ccccc3N2)s1 (stereo not given) | > 100 µM (inactive) | 5.21 µM (inactive) | > 100 µM (inactive) | 7.05 µM (inactive) | 6.67 µM (inactive) | 8.05 µM (inactive) | 6.12 µM (inactive) | 4.26 µM (inactive) |  | 5.86 µM (inactive) | 5.81 µM (inactive) | 2.88 µM (inactive) | 5.4 µM (inactive) | 4.79 µM (inactive) | 59.6 µM (inactive) | 2.94 µM (inactive) |  | 4.09 µM | 
8 | Nc1c(/N=N/c2ccc(-c3ccc(/N=N/c4c(O)ccc5cc(S(=O)(=O)O)cc(S(=O)(=O)O)c45)cc3)cc2)c(S(=O)(=O)O)cc2cc(S(=O)(=O)O)c(/N=N/c3ccccc3)c(O)c12 |  | > 100 µM (inactive) | > 100 µM (inactive) | > 100 µM (inactive) | > 100 µM (inactive) |  | > 100 µM (inactive) | > 100 µM (inactive) | > 100 µM (inactive) | > 100 µM (inactive) | > 100 µM (inactive) | > 100 µM (inactive) | > 100 µM (inactive) | > 100 µM (inactive) | > 100 µM (inactive) | > 100 µM (inactive) | > 100 µM (inactive) | > 100 µM | 35.7 µM (inactive)
9 | CC1=C(C(=O)Nc2ccccc2)C(c2ccc3c(c2)OCO3)C(C(=O)Nc2ccccc2)=C(C)N1 | 33.7 µM (inactive) | 26.2 µM (inactive) | 53.3 µM (inactive) | 44.6 µM (inactive) | 60.7 µM (inactive) | 33.7 µM (inactive) | 40.4 µM (inactive) | 17 µM (inactive) | 21.6 µM (inactive) | 11.1 µM (inactive) | 31.6 µM (inactive) | 33.7 µM (inactive) | 47.3 µM (inactive) | 34.2 µM (inactive) | 25.7 µM (inactive) | 3.5 µM (inactive) | 42.7 µM (inactive) | 33 µM | 
10 | C=CC[N+](CCO)(CCO)CCCCCCCCCCCCCCCCCC |  | 3.96 µM (inactive) | 17 µM (inactive) | 3.23 µM (inactive) | 1.97 µM (inactive) |  | 3.34 µM (inactive) | 3.77 µM (inactive) | 3.88 µM (inactive) | 2.19 µM (inactive) | 12.9 µM (inactive) | 8.13 µM (inactive) | 10.9 µM (inactive) | 6.78 µM (inactive) | 8.91 µM (inactive) | 6.24 µM (inactive) | 3.36 µM (inactive) | 12.8 µM | 2.43 µM (inactive)

Reference: ChEMBL document CHEMBL1201862, “PubChem BioAssay data set” (2004)
